The text below walks through data of US9801855B2, “Nanocrystalline solid dispersion compositions and process of preparation thereof” (NATIONAL INSTITUTE OF PHARMACEUTICAL EDUCATION AND RESEARCH …, priority 2012, dated 2017).

Broadly, the AUC(0-inf) is total exposure, with the tail of the curve extrapolated. Read a high AUC(0-inf) as high exposure. Broadly, the Cmax is the maximum level reached in the sampled fluid or tissue. Broadly, the Tmax is the time at which the peak concentration occurs. A word on the half-life: it is the time needed for the level to fall by half in the phase considered.

Molecules are shown by their SMILES.

A short description of series [1]: Dissolution of powder and dispersion in 900 ml of 100 mM pH 6.8 phosphate buffer at 100 rpm. The series is classed as physicochemical. Particulars: 60 mg equivalent. The procedure: • i. 2 gm of hesperetin was dissolved in 150 ml of methanol • ii. 2 gm of mannitol was dissolved in 50 ml of distilled water. • iii. Aqueous mannitol solution was added to methanolic solution of hesperetin. The solution was spray dried using following parameters (Table 10). • iv. DSC and MDSC indicated the crystalline nature of hesperetin in the dispersion. The crystallite size measured from powder X-ray diffraction peak broadening (FIG. 14) by Scherrer equation was 141.06 nm. • v. The dissolution profiles of hesperetin powder and dispersion in 900 ml of 100 mM pH 6.8 phosphate buffer at 100 rpm are presented in Table 11. 60 mg equivalent of hesperetin as powder and dispersion were taken for dissolution studies. • i. 2 gm of Naringenin was dissolved in 150 ml of methanol • ii. 2 gm of mannitol was dissolved in 50 ml of distilled water. • iii. Aqueous mannitol solution was added to methanolic solution of naringenin. The solution was spray dried using following parameters (Table 12). • iv. DSC and MDSC indicated the crystalline nature of naringenin in the dispersion. The crystallite size measured from powder X-ray diffraction peak broadening (FIG. 15) by Scherrer equation was 210.63 nm. • v. The dissolution profiles of naringenin powder and dispersion in 900 ml of 100 mM pH 6.8 phosphate buffer at 100 rpm are presented in Table 13. 60 mg equivalent of naringenin as powder and dispersion were taken for dissolution studies.

A short description of the next series: in vivo. Particulars: female, SD, rat, po, 250 mg/kg.
A short description of series [2]: Dissolution of curcumin powder and dispersion in fasted state simulated gastric fluid. The series is classed as physicochemical. Particulars: fasted state simulated gastric fluid pH 1.6, 37° C., 100 rpm, 25 mg equivalent. Here is the method: • i. 2 gm of curcumin and 2 gm of stearic acid were dissolved in 200 ml of acetone. • ii. The solution was spray dried using following parameters (Table 1). • iii. DSC and MDSC indicated the crystalline nature of curcumin in the dispersion. The crystallite size measured from powder X-ray diffraction peak broadening by Scherrer equation was 398.6 nm. • iv. Fasted state simulated gastric fluid contained sodium taurocholate (80 μM), lecithin (20 μM), pepsin (0.1 mg/ml), sodium chloride (34.2 mM), sodium lauryl sulphate (0.05% w/v) and hydrochloric acid (q.s. pH 1.6). Samples equivalent to 25 mg of CRM were added into 900 ml dissolution medium and incubated at 37±0.5° C. at 100 rpm.

In the case of `COc1ccc([C@@H]2CC(=O)c3c(O)cc(O)cc3O2)cc1O` [Hesperetin powder, hesperetin], the “% Release” value in series [1] (0 min) stood at 0.00%; in series [1] (3 min) it was 1.25%; in series [1] (5 min), 3.06%; in series [1] (10 min), 2.15%; in series [1] (15 min), 1.06%; in series [1] (30 min), 1.48%. Moreover, the “% Release” value was found to be 3.74% in series [1] (60 min) and 7.47% in series [1] (120 min).

As to `COc1cc(/C=C/C(=O)CC(=O)/C=C/c2ccc(O)c(OC)c2)ccc1O` [Control, curcumin], in the series “in vivo”, the AUC(0-inf) is 76.2 ng·h/mL, the peak level (Cmax) was 58.1 ng/mL, the time to peak (Tmax) was determined as 0.6 ± 0.1 h and the half-life was 1.4 ± 0.3 h.

Turning to `COc1cc(/C=C/C(=O)CC(=O)/C=C/c2ccc(O)c(OC)c2)ccc1O` [Curcumin powder, curcumin], the “% Release” value in series [2] (5 min) is given as 10.8%; in series [2] (10 min), 15.0%; in series [2] (15 min), 15.4%; in series [2] (20 min) it was 15.1%; in series [2] (30 min), 15.1%; in series [2] (40 min) it was 15.2%. For the same compound, the “% Release” value was 15.0% in series [2] (60 min), 15.2% in series [2] (80 min), 15.6% in series [2] (100 min) and 15.3% in series [2] (120 min).

Regarding `O=C1C[C@@H](c2ccc(O)cc2)Oc2cc(O)cc(O)c21` [Naringenin powder, naringenin], the “% Release” value in series [1] (0 min) is recorded as 1.60%; in series [1] (3 min), 5.84%; in series [1] (5 min), 9.54%; in series [1] (10 min), 11.52%; in series [1] (15 min) it was 17.32%; in series [1] (30 min) it was 23.34%. In addition, the “% Release” value in series [1] (60 min) is 26.25%; in series [1] (120 min), 25.14%.
